Where two headings read alike, the source gives them in different places. Blank lines part the entries; values can stand above or below the compound they belong to.
How the values were obtained:
Format in all cases: cell-based
[1] = test system: NSCLC A549 lung cancer cells; assay: XTT assay, cell proliferation after 72 hours incubation, IC50
Method: (§1) Example 10 (see also FIG. 10) is a study to determine the effect of the combination of calcium blockers on the proliferation of cancer cells. NSCLC A549 lung cancer cells were incubated with various concentrations of a combination of calcium blockers ranging from 1 μM to 50 μM. […] An XTT assay was then performed. The cell proliferation was then calculated. Results are representative of at least three independent experiments. IC50 was calculated from the % inhibition data.

[2] = test system: A549 lung cancer cells; assay: Intracellular free calcium, Fura-2-AM fluorescence measurement
Method: The intracellular free calcium measurement was done using Fura-2-AM fluorescence measurement. […] Ionomycin was used as the positive control for stimulation of calcium entry. Calcium was removed from the medium at the end of each experiment via addition of EGTA or replacement of the medium with calcium free medium. The calculation of the absolute calcium concentration was performed using a standard calcium curve. An average of 15 cells is shown.
The intracellular free calcium measurement was done using Fura-2-AM fluorescence measurement. […] The calculation of the absolute calcium concentration was performed using a standard calcium curve. An average of 15 cells is shown.
The intracellular free calcium measurement was done using Fura-2-AM fluorescence measurement. […] Ionomycin was used as the positive control for stimulation of calcium entry.

[3] = test system: A549 lung cancer cells; assay: XTT assay, cell proliferation 48 hours after addition; conditions: increasing concentrations
Method: An XTT assay was performed 48 hours after the addition of nitrendipine at increasing concentrations. The cell proliferation was then calculated. Results are representative of at least three independent experiments. The results are illustrated in FIG. 1B. […] Without limitation by theory, it is theorized that nitrendipine lethally flooded the cells with calcium at the noted concentrations.
(§2) An XTT assay was performed 48 hours after the addition of nicardipine at increasing concentrations. The cell proliferation was then calculated. Results are representative of at least three independent experiments. The results are illustrated in FIG. 2B. […] Without limitation by theory, it is theorized that the nicardipine-initiated block of the entry of extracellular free calcium inhibits the cell's ability to undergo or successfully finish cytokinesis, and this may lead to cell death.
as §2, with “nisoldipine” for “nicardipine”, “4B.” for “2B.”, “nisoldipine-initiated” for “nicardipine-initiated”, “cytokinesis” for “cytokinesis,”
as §2, with “The” for “An XTT assay was performed 48 hours after the addition of nicardipine at increasing concentrations. The”, “7B.” for “2B.”, “loperamide-initiated” for “nicardipine-initiated”

[4] = test system: NSCLC A549 lung cancer cells; assay: XTT assay, cell proliferation after 24 hours incubation
Method: Example 6 was a study to determine the effect of treatment with nitrendipine and the dihydropyridine of Formula IV above on the proliferation of cancer cells. NSCLC A549 lung cancer cells were incubated with various concentrations of nitrendipine and the dihydropyridine of Formula IV ranging from 1 μM to 100 μM. 5000 cells were plated in RPMI medium per well and incubated with either the individual drugs for 24 hours. An XTT assay was then performed. The cell proliferation was then calculated. FIG. 6 is a graphical representation of the results.
as §1, with “8 was” for “10 (see also FIG. 10) is”, “μM. In this specific example, the combination of loperamide and the dihydropyridine, nitrendipine, was used.” for “μM.”, “FIG. 8 is a graphical representation of” for “IC50 was calculated from”, “results.” for “% inhibition data.”
as §1, with “9” for “10 (see also FIG. 10)”, “μM. In this specific example, the combination of loperamide and the dihydropyridine, nicardipine, was used.” for “μM.”, “FIG. 9 is a graphical representation of” for “IC50 was calculated from”, “results.” for “% inhibition data.”

[5] = Homo sapiens, A549, compound alone plus DMSO, 72 hours, read-out: Plus DMSO (Control), IC-50
[6] = read-out: Plus Loperamide, IC-50, in combination with loperamide (5 uM per FIG. 10), 72 hours
[7] = compound alone plus DMSO, 72 hours

IC50 [1, 5]: 7.7 µM | IC50 [1, 6]: 3.95 µM
SMILES: COC(=O)C1=C(C)NC(C)=C(C(=O)OC(C)(C)CN(C)CCC(c2ccccc2)c2ccccc2)C1c1cccc([N+](=O)[O-])c1 (racemic) [Lercanidipine]

IC50 [1, 5]: 22 µM
SMILES: CCOC(=O)C1=C(COCCN)NC(C)=C(C(=O)OC)C1c1ccccc1Cl (centres unmarked) [Amlodipine]

IC50 [1, 5]: 8.5 µM | IC50 [1, 6]: 4.8 µM
SMILES: CC1=C(C(=O)OC(C)C)C(c2cccc([N+](=O)[O-])c2)C(C(=O)OC2CN(C(c3ccccc3)c3ccccc3)C2)=C(N)N1 (centres unmarked) [Azelnidipine]

IC50 [1, 5]: 18 µM
SMILES: COC(=O)C1=C(C)NC(C)=C(C(=O)OC2CCCN(Cc3ccccc3)C2)C1c1cccc([N+](=O)[O-])c1 (centres unmarked) [Benidipine]

IC50 [1, 5]: 23 µM
SMILES: CCCC(=O)OCOC(=O)C1=C(C)NC(C)=C(C(=O)OC)C1c1cccc(Cl)c1Cl (centres unmarked) [Clevidipine]

IC50 [1, 5]: 10.2 µM
SMILES: CC1=C(C(=O)OCCN(Cc2ccccc2)c2ccccc2)C(c2cccc([N+](=O)[O-])c2)C(P2(=O)OCC(C)(C)CO2)=C(C)N1 (centres unmarked) [Efonidipine]

IC50 [1, 5]: 26 µM
SMILES: CCOC(=O)C1=C(C)NC(C)=C(C(=O)OC)C1c1cccc(Cl)c1Cl (centres unmarked) [Felodipine]

IC50 [1, 5]: 26 µM
SMILES: COC(=O)C1=C(C)NC(C)=C(C(=O)OC(C)C)C1c1cccc2nonc12 (centres unmarked) [Isradipine]

IC50 [1, 5]: 16 µM
SMILES: CCOC(=O)C1=C(C)NC(C)=C(C(=O)OCC)C1c1ccccc1/C=C/C(=O)OC(C)(C)C [Lacidipine]

IC50 [1, 5]: 8.2 µM
SMILES: COC(=O)C1=C(C)NC(C)=C(C(=O)OCCN2CCN(C(c3ccccc3)c3ccccc3)CC2)C1c1cccc([N+](=O)[O-])c1 (centres unmarked) [Manidipine]

IC50 [1, 5]: 13.7 µM | IC50 [1, 6]: 6.7 µM
SMILES: COC(=O)C1=C(C)NC(C)=C(C(=O)OCCN(C)Cc2ccccc2)C1c1cccc([N+](=O)[O-])c1 (centres unmarked) [Nicardipine, 2-[benzyl(methyl)amino]ethylmethyl-2,6-dimethyl-4-(3-nitrophenyl)-1,4-dihydropyridine-3,5-dicarboxylate]
Avg. % proliferation ([4]; Example 9, 1 μM): 99.90% | Avg. % proliferation ([4]; Example 9, 5 μM): 100.23% | Avg. % proliferation ([4]; Example 9, 10 μM): 86.20% | Avg. % proliferation ([4]; Example 9, 50 μM): 32.97%

IC50 ([1]; Homo sapiens, A549, 72 h, read-out: Plus DMSO (Control), IC-50): 5.37 µM | IC50 ([1]; read-out: Plus Loperamide, IC-50): 3.12 µM
SMILES: COC(=O)C1=C(C)NC(C)=C(C(=O)OCCCN2CCC(c3ccccc3)(c3ccccc3)CC2)[C@H]1c1cccc([N+](=O)[O-])c1 [Niguldipine]

IC50 [1, 5]: 17.6 µM
SMILES: COC(=O)C1=C(C#N)NC(C)=C(C(=O)OC(C)C)C1c1cccc([N+](=O)[O-])c1 (centres unmarked) [Nilvadipine]

The remaining lines, values behind:

SMILES: CCOC(=O)C1=C(C)NC(C)=C(C(=O)OC)C1c1cccc([N+](=O)[O-])c1 (racemic) [Nitrendipine, (RS)-3-Ethyl 5-methyl 2,6-dimethyl-4-(m-nitrophenyl)-1,4-dihydropyridine-3,5-dicarboxylate]
effect on intracellular free calcium ([2]; 1 μM and 5 μM treatments): functions as an agonist for the entry of extracellular calcium | concentration of intracellular calcium versus positive control (ionomycin) ([2]; 5 μM treatment): greater than that of the positive control | effect on intracellular free calcium ([2]; consecutive treatments with nitrendipine and nicardipine, 20 μM each): floods the cells with calcium | percentage of cell growth [3]: decreases as the concentration of nitrendipine is increased | Avg. % proliferation ([4]; Example 6, 1 μM): 86.24% | Avg. % proliferation ([4]; Example 6, 5 μM): 87.19% | Avg. % proliferation ([4]; Example 6, 10 μM): 75.97% | Avg. % proliferation ([4]; Example 6, 50 μM): 52.21% | Avg. % proliferation ([4]; Example 6, 100 μM): 24.42% | Avg. % proliferation ([4]; Example 8, 1 μM): 102.33% | Avg. % proliferation ([4]; Example 8, 5 μM): 93.35% | Avg. % proliferation ([4]; Example 8, 10 μM): 102.58% | Avg. % proliferation ([4]; Example 8, 50 μM): 71.43%

SMILES: COCCOC(=O)C1=C(C)NC(C)=C(C(=O)OC/C=C/c2ccccc2)C1c1cccc([N+](=O)[O-])c1 (centres unmarked) [Clinidipine]
IC50 ([1]; read-out: Plus DMSO (Control), IC-50): 41 µM

SMILES: COc1ccc([C@@H]2Sc3ccccc3N(CCN(C)C)C(=O)[C@@H]2OC(C)=O)cc1 [Diltiazem]
Plus DMSO (Control), IC-50 [1, 7]: No Activity

SMILES: CCOC(=O)C1=C(C)NC(C)=C(C(=O)OC)C1c1ccccc1 (centres unmarked) [Formula IV, 5-O-ethyl 3-O-methyl 2,6-dimethyl-4-phenyl-1,4-dihydropyridine-3,5-dicarboxylate]
effect on intracellular free calcium ([2]; 5 μM and 50 μM treatments): blocks the influx of extracellular calcium | Avg. % proliferation ([4]; Example 6, 5 μM): 96.4% | Avg. % proliferation ([4]; Example 6, 10 μM): 104.2% | Avg. % proliferation ([4]; Example 6, 50 μM): 79.06% | Avg. % proliferation ([4]; Example 6, 100 μM): 67.8%

SMILES: CN(C)C(=O)C(CCN1CCC(O)(c2ccc(Cl)cc2)CC1)(c1ccccc1)c1ccccc1 [Loperamide, 4-[4-(4-Chlorophenyl)-4-hydroxypiperidin-1-yl]-N,N-dimethyl-2,2-diphenylbutanamide]
effect on intracellular free calcium ([2]; 5 μM and 50 μM treatments): blocks the influx of extracellular calcium | percentage of cell growth [3]: decreases as the concentration of loperamide is increased | Avg. % proliferation ([4]; Example 8, 1 μM): 98.07% | Avg. % proliferation ([4]; Example 8, 5 μM): 99.77% | Avg. % proliferation ([4]; Example 8, 10 μM): 96.09% | Avg. % proliferation ([4]; Example 8, 50 μM): 34.04% | Avg. % proliferation ([4]; Example 9, 1 μM): 92.73% | Avg. % proliferation ([4]; Example 9, 5 μM): 86.97% | Avg. % proliferation ([4]; Example 9, 10 μM): 90.33% | Avg. % proliferation ([4]; Example 9, 50 μM): 32.03%

SMILES: COC(=O)C1=C(C)NC(C)=C(C(=O)OC)C1c1ccccc1[N+](=O)[O-] [Nifedipine]
Plus DMSO (Control), IC-50 [1, 7]: No Activity

SMILES: COCCOC(=O)C1=C(C)NC(C)=C(C(=O)OC(C)C)C1c1cccc([N+](=O)[O-])c1 (centres unmarked) [Nimodipine]
Plus DMSO (Control), IC-50 [1, 7]: No Activity

SMILES: COc1ccc(CCN(C)CCCC(C#N)(c2ccc(OC)c(OC)c2)C(C)C)cc1OC (centres unmarked) [Verapamil]
Plus DMSO (Control), IC-50 [1]: No Activity

SMILES: COC(=O)C1=C(C)NC(C)=C(C(=O)OCC(C)C)C1c1ccccc1[N+](=O)[O-] (centres unmarked) [nisoldipine, isobutyl methyl 2,6-dimethyl4-(2-nitrophenyl)-1,4-dihydropyridine-3,5-dicarboxylate]
effect on intracellular free calcium ([2]; 5 μM and 10 μM treatments): blocks the influx of extracellular calcium | percentage of cell growth [3]: decreases as the concentration of nisoldipine is increased
